Reference: PMC9459812, “Evaluation of Activity of Sesquiterpene Lactones and Chicory Extracts as Acetylcholinesterase Inhibitors Assayed in Calorimetric and Docking Simulation Studies” (Nutrients, 2022)

How the values were obtained:
[1] = target: T1, acetylcholinesterase (AChE) (Electrophorus electricus, UniProt O42275); assay: biochemical; conditions: ITC, 36.6 °C, single binding site mode, n = 9, ± SD; read-out: KD (dissociation constant)
[2] = target: T1, acetylcholinesterase (AChE); assay: biochemical; conditions: ITC, n = 9, ± SD

T1 sequence (O42275 24-633): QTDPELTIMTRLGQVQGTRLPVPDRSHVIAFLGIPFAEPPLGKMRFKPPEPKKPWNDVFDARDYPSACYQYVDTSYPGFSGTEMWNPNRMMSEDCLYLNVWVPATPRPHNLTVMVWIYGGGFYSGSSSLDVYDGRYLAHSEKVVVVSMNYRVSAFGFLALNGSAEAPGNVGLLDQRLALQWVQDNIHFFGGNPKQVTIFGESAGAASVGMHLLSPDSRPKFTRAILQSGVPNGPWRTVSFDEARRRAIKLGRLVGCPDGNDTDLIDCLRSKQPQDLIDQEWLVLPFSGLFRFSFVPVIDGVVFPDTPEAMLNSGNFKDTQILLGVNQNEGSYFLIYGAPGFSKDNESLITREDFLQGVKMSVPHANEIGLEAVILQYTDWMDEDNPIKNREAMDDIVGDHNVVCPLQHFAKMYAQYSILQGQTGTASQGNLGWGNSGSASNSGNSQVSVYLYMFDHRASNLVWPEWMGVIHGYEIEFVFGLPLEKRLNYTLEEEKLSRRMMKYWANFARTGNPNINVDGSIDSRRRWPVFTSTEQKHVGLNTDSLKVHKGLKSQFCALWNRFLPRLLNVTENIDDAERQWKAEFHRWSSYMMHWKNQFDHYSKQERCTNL

With C=C1C(=O)O[C@@H]2[C@H]3C(CO)=CC(=O)C3=C(C)C[C@H](OC(=O)Cc3ccc(O)cc3)[C@@H]12 [Lactucopicrin, lactucopicrin] the Kd [1] was 169000 ± 120 nM, the Ki ([2]; dissociation constant of the enzyme–inhibitor complex, read-out: KI (inhibition constant)) was 1320 ± 110 nM and the IC50 ([2]; inhibitor concentration causing 50% decrease in enzyme activity (converted to lactucine for extracts)) was 1740 ± 110 nM.
